Test results taken from US11230526B1, “Cylcoalkenyl derivatives useful as agonists of the GPR120 and/or GPR40 receptors” (Janssen Pharmaceutica NV, priority 2018, dated 2022).

Key:
Assay type in all cases: cell-based
Human GPR120 short form [1] = target: T1, Human GPR120 short form (Homo sapiens, UniProt Q5NUL3); assay: Human GPR120 calcium flux assay, Procedure Calcium A (2500 cells/well)
T1 construct: expressed in transfected cells
T1 sequence (Q5NUL3 1-361): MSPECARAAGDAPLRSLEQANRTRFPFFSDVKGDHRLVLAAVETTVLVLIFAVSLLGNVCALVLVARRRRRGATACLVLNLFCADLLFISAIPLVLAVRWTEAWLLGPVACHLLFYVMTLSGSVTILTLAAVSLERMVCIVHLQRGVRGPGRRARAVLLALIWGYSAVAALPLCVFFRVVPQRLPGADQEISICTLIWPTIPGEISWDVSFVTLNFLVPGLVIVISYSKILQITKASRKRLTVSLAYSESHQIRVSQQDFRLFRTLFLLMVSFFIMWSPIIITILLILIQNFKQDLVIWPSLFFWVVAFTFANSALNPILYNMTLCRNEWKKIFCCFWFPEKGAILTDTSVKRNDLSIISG
Procedure, shortened: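 HEK293 cells stably expressing human GPR120 short isoform (NM_001195755.1), 2500 cells/well, serum-starved 1 h at 37 °C and loaded with Fluo-4 NW plus probenecid. FLIPR fluorescence read for 300 s after compound addition; response = Fmax−Fmin. EC50 from four-parameter concentration–response fit.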

Human GPR120 short form [2] = target: T1, Human GPR120 short form; assay: Human GPR120 calcium flux assay, Procedure Calcium B (4200 cells/well)
Procedure, shortened: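 HEK293 cells stably expressing human GPR120 (NM_001195755.1), 4200 cells/well, starved 1 h and loaded with Fluo-4 NW plus probenecid. Ligand-evoked calcium flux read on FLIPR for 300 s after a 10 s baseline. RFU = Fmax−Fmin; EC50 from four-parameter concentration-response fit.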

human GPR40 = target: T2, human GPR40 (Homo sapiens, UniProt O14842); assay: GPR40 calcium flux assay, human GPR40; details: HEK293 cells stably expressing GPR40; table does not say human or rat
T2 construct: expressed in transfected cells
T2 sequence (O14842 whole entry): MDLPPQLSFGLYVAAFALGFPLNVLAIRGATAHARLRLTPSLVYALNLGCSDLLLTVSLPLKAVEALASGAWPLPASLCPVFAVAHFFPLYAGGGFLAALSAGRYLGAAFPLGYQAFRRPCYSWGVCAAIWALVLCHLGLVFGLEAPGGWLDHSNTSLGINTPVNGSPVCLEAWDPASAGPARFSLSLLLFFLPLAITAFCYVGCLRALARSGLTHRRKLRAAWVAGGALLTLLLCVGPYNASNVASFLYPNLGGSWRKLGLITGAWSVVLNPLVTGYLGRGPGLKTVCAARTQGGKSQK
Procedure, shortened: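 Cells preincubated 1 h at 37° C. in HBSS, 20 mM HEPES, 0.1% BSA, then Fluo 8 calcium dye 30 min at 37° C. and 15 min at room temperature.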

SMILES	EC50 (Human GPR120 short form [1]) [µM]	EC50 (Human GPR120 short form [2]) [µM]	EC50 (human GPR40) [µM]
Cc1ccc(C2=C(COc3ccc(CCC(=O)O)c(F)c3F)CCC2)cc1F [Compound 78, 3-(2,3-difluoro-4-((2-(3-fluoro-4-methylphenyl)cyclopent-1-en-1-yl)methoxy)phenyl)Propanoic Acid]	0.094	0.034	> 5
Cc1cc(CCC(=O)O)ccc1OCC1=C(c2ccc(Cl)cc2)CCC1 [Compound 62, 3-[4-[[2-(4-chlorophenyl)cyclopenten-1-yl]methoxy]-3-methyl-phenyl]Propanoic Acid]	0.136	0.027	> 5
Cc1ccc(C2=C(COc3ccc(CCC(=O)O)c(C)c3C)CCC2)cc1C [Compound 106, 3-(4-((2-(3,4-dimethylphenyl)cyclopent-1-en-1-yl)methoxy)-2,3-dimethylphenyl)Propanoic Acid]	0.572	0.567	> 5
Cc1c(CCC(=O)O)ccc(OCC2=C(c3cncs3)CCC2)c1C [Compound 88, 3-[2,3-dimethyl-4-[(2-thiazol-5-ylcyclopenten-1-yl)methoxy]phenyl]Propanoic Acid]	0.461	0.233	> 5
Cc1ccc(C2=C(COc3ccc(CCC(=O)O)c(F)c3F)CCC2)cc1C [Compound 83, 3-(4-((2-(3,4-dimethylphenyl)cyclopent-1-en-1-yl)methoxy)-2,3-difluorophenyl)Propanoic Acid]	0.59	0.143	> 5
O=C(O)CCc1ccc(OCC2=C(c3ccc(Cl)cc3)CCC2)cc1F [Compound 47, 3-[4-[[2-(4-chlorophenyl)cyclopenten-1-yl]methoxy]-2-fluoro-phenyl]Propanoic Acid]	0.582	0.103	0.932
Cc1cc(CCC(=O)O)ccc1OCC1=C(c2ccc(Cl)cc2)CCC(F)(F)C1 [Compound 467, 3-(4-((4′-chloro-4,4-difluoro-3,4,5,6-tetrahydro-[1,1′-biphenyl]-2-yl)methoxy)-3-methylphenyl)Propanoic Acid]	0.199	0.04	> 5
Cc1cc(CCC(=O)O)ccc1OCC1=C(c2ccc(Cl)c(F)c2)CCC1 [Compound 159, 3-(4-((2-(4-chloro-3-fluorophenyl)cyclopent-1-en-1-yl)methoxy)-3-methylphenyl)Propanoic Acid]	0.044	0.026	> 5
Cc1ccc(C2=C(COc3ccc(CCC(=O)O)cc3C)CCC2)cn1 [Compound 102, 3-(3-methyl-4-((2-(6-methylpyridin-3-yl)cyclopent-1-en-1-yl)methoxy)phenyl)Propanoic Acid]	0.781	0.134	> 5
Cc1c(CCC(=O)O)ccc(OCC2=C(c3cccnc3)CCC2)c1C [Compound 108, 3-[2,3-dimethyl-4-[[2-(3-pyridyl)cyclopenten-1-yl]methoxy]phenyl]Propanoic Acid]	1.05	0.233	> 5
CCc1ccc(C2=C(COc3ccc(CCC(=O)O)c(F)c3F)CCC2)cc1 [Compound 25, 3-(4-((2-(4-ethylphenyl)cyclopent-1-en-1-yl)methoxy)-2,3-difluorophenyl)Propanoic Acid]	0.129	–	> 5
Cc1c(CCC(=O)O)ccc(OCC2=C(c3ccc(Cl)cc3)CC(F)(F)C2)c1C [Compound 137, 3-[4-[[2-(4-chlorophenyl)-4,4-difluoro-cyclopenten-1-yl]methoxy]-2,3-dimethyl-phenyl]Propanoic Acid]	–	0.065	> 5
Cc1c(CCC(=O)O)ccc(OCC2=C(c3ccc(OC(F)(F)F)cc3)CCC2)c1C [Compound 20, 3-(2,3-dimethyl-4-((2-(4-(trifluoromethoxy)phenyl)cyclopent-1-en-1-yl)methoxy)phenyl)Propanoic Acid]	> 20	–	> 5
